Data from patent US12053465B2, “KCC2 expression enhancing compounds and uses thereof” (Whitehead Institute for Biomedical Research, priority 2017, dated 2024).
“Also recorded” adds a separate entry of the source.

Legend:
KCC2 expression = experiment: Western blot of KCC2 in cultured human RTT neurons; format: cell-based; conditions: Western blot; for concentration at which treatment significantly increases KCC2 expression: cultured ESC-derived human RTT neurons; for KCC2 expression: cultured human RTT neurons
Summary of the method: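 Cultured neurons lysed in RIPA buffer (pH 7.6) with sonication; immunoblotted on PVDF with KCC2 antibody (1:2000) overnight at 4° C., HRP secondary.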

human RTT neurons = experiment: Membrane capacitance (Cm) of cultured human RTT neurons; format: cell-based; conditions: for increase of neuronal Cm: RTT neurons transfected with KCC2 shRNA; for membrane capacitance (Cm): cultured human RTT neurons, vs DMSO or MeBIO control
From the text: Moreover, a reduction in the number or the strength of excitatory glutamatergic synapses in RTT neurons has been observed in postmortem RTT patient brain samples (30), mouse models of RTT (53), and human stem cell-derived RTT neurons (54). Electrophysiology recording was utilized to assess whether KEECs could rescue the deficits in EGABA and excitatory synaptic transmission of RTT neurons. […] We further investigated whether the beneficial effect of KEECs is a direct result of the increases in neuronal KCC2 gene expression. […] Deficits in a number of morphological measurements, including nuclei size and neurite complexity and branching, are hallmarks of RTT neurons (54-56). […] To validate the morphological measurements, electrophysiological measurements of the neuronal membrane capacitance (Cm), an indicator of neuronal cell size (57) that is reduced in RTT neurons, were conducted.
Functionally mature human neuron cultures were obtained by seeding human WT or isogenic RTT NPCs on a layer of primary mouse astrocyte culture as previously described (57). In the cultured WT human neurons, KCC2 expression reaches mature level between 2-3 months (7). We therefore treated the WT or RTT human neurons 8-12 weeks in culture, with compounds for a duration of two weeks before conducting whole-cell patch-clamp recording. The extracellular bath solution, that perfused the recording chamber, consists of (in mM): 120 NaCl, 30 glucose, 25 HEPES, 5 KCl, 2 CaCl2, 1 MgCl2. The pH was adjusted to 7.3 with NaOH. The high-chloride internal pipette solution consists of (in mM): 147 KCl, 5 Na-phosphocreatine, 2 EGTA, 10 HEPES, 4 MgATP, and 0.5 Na2GTP; the pH 7.3 was adjusted with KOH. To record mini EPSC, the membrane potential was held at −70 mV, and 0.5 μM of TTX and 50 μM Picrotoxin were applied with bath solution to block action potential and GABAergic synaptic transmission.

| Compound | concentration at which treatment significantly increases KCC2 expression (KCC2 expression) [µM] | KCC2 expression (KCC2 expression) | KCC2 expression (KCC2 expression; listed as KIN 001-043) | increase of neuronal Cm (human RTT neurons) | membrane capacitance (Cm) (human RTT neurons) |
| --- | --- | --- | --- | --- | --- |
| O=C1Nc2cc(Br)ccc2/C1=C1/Nc2ccccc2/C1=N\O [BIO, (2Z,3E)-6′-bromo-3-(hydroxyimino)-[2,3′-biindolinylidene]-2′-one] | 0.3 | increased KCC2 expression levels significantly | increase KCC2 expression | abolished the capability | significantly higher Cm, at levels comparable to isogenic WT human neurons |
| O=C(c1ccc(/C=C/c2n[nH]c3ccccc23)cc1)N1CCNCC1 [KW-2449, (E)-(4-(2-(1H-indazol-3-yl)vinyl)phenyl)(piperazin-1-yl)methanone] | 0.1 | increase KCC2 expression; also recorded: significant enhancement of KCC2 expression | – | abolished the capability | significantly higher Cm, at levels comparable to isogenic WT human neurons |
